Measurements taken from US6110716A, “HIV integrase inhibitors” (Merck & Co., Inc., priority 1998, dated 2000).

Key:
[1] = biological target: T1, HIV-1 integrase (Human immunodeficiency virus type 1 group M subtype B, UniProt P04585); test: HIV Integrase Substrate Cleavage (trimming of the 3' end of HIV long terminal repeat terminus by HIV-1 integrase); assay type: biochemical; conditions: inhibition of HIV integrase substrate cleavage; inhibitor 0.75 to 100 μM
T1 construct: HIV long terminal repeat terminus by HIV-1 integrase
Method: HIV Integrase Substrate Cleavage
An assay for trimming of the 3' and of HIV long terminal repeat terminus by HIV-1 integrase was conducted according to LaFemina, R. L. et al., J. Virol 10, 5624 (1991), herein incorporated by reference for these purposes. To assay inhibition of HIV integrase substrate cleavage, the reaction was conducted with inhibitor having various concentrations in the range of 0.75 to 100 μM.

[2] = biological target: HIV integrase (Human immunodeficiency virus type 1 group M subtype B, UniProt P04585); test: Strand Transfer Assay for HIV Integrase (microtiter assay for ligation of processed donor (HIV) DNA to unspecific, nicked host DNA); assay type: biochemical; conditions: inhibition of strand transfer by HIV integrase; inhibitor 0.75 to 100 μM
Method: Strand Transfer Assay for HIV Integrase
A microtiter assay for ligation of processed donor (HIV) DNA to unspecific, nicked host DNA was conducted according to Hazuda, D. J. et al., Nucl. Acids, Res. 22, 1121 (1994), herein incorporated by reference for these purposes. To assay inhibition of such strand transfer by HIV integrase, the reaction was conducted with inhibition having various concentrations in the range of 0.75 to 100 μM. Representative results follow.

SMILES	IC50 [1]	IC50 [2]
Cc1oc2cc3c(-c4c(O)cc(O)c5c(O)c6c(cc45)O[C@@H](C)[C@@H](C)C6=O)c(O)cc(O)c3c(O)c2c(=O)c1C (relative stereo) [Compound D]	1 µM	4 µM
CC1Oc2cc3c(-c4c(O)cc(O)c5c(O)c6c(cc45)OC(C)C(C)C6=O)c(O)cc(O)c3c(O)c2OC(=O)C1C (single isomer, unassigned) [Compound C]	3 µM	9 µM
CC1Oc2cc3c(-c4c(O)cc(O)c5c(O)c6c(cc45)OC(C)C(C)C6=O)c(O)cc(O)c3c(O)c2C(=O)C1C (stereo not drawn) [Compound A]	2 µM	12 µM
COc1cc(O)c2c(OC)c3c(cc2c1-c1c(OC)cc(OC)c2c(OC)c4c(cc12)OC(C)C(C)C4=O)OC(C)C(C)C3=O (stereo not drawn) [Compound F]	40 µM	–
COc1cc(OC)c2c(OC)c3c(cc2c1-c1c(OC)cc(OC)c2c(OC)c4c(cc12)OC(C)C(C)C4=O)OC(C)C(C)C3=O (stereo not drawn) [Compound G]	60 µM	–
CC(=O)Oc1cc(OC(C)=O)c2c(OC(C)=O)c3c(cc2c1-c1c(OC(C)=O)cc(OC(C)=O)c2c(OC(C)=O)c4c(cc12)OC(C)C(C)C4=O)OC(C)C(C)C3=O (stereo not drawn) [E]	50 µM	–
